{
  "source": "ChEMBL document CHEMBL3813654",
  "about": "“De Novo Design at the Edge of Chaos” (J Med Chem, 2016)",
  "key": {"[1]": {"target": "Cyclin-dependent kinase 4/cyclin D2 (Homo sapiens, UniProt P11802+P30279)", "sequence (P11802 whole entry)": "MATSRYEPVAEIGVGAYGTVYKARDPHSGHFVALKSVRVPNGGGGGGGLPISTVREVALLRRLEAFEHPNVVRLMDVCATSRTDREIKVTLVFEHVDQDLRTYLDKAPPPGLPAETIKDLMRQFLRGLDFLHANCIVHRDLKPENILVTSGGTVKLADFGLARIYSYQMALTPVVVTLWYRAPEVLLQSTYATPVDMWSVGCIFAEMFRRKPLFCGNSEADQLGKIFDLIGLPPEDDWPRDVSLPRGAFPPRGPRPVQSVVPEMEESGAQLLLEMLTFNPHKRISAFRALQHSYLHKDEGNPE", "sequence (P30279 whole entry)": "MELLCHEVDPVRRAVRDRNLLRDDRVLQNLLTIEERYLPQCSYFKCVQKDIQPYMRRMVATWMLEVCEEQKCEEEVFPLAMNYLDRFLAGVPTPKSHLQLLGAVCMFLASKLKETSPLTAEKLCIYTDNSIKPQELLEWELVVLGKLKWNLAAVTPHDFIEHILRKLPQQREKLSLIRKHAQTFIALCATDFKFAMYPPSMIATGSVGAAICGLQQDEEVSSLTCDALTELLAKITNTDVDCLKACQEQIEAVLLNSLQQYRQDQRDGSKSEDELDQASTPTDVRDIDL", "test": "Inhibition of human recombinant CDK4/Cyclin D2 expressed in baculovirus infected insect Sf9 cells using G1 peptide as substrate after 45 mins by Top Count method in presence of [33P]-ATP"}, "Procathepsin L": {"target": "Procathepsin L (Homo sapiens, UniProt P07711)", "sequence (P07711 whole entry)": "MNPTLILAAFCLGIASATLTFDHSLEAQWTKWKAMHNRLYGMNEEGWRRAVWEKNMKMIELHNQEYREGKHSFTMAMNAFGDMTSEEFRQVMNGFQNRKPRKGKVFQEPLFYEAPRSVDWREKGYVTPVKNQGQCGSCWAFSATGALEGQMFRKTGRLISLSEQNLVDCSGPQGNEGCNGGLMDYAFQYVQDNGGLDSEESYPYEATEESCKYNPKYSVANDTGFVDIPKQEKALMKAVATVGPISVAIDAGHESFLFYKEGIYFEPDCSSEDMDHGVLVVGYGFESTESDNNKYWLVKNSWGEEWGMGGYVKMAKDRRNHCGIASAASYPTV", "test": "Activation of human liver cathepsin L using Z-FR-AMC as substrate measured for 120 mins by fluorescence assay"}, "MAP kinase p38": {"target": "MAP kinase p38 (Homo sapiens, UniProt O15264+Q15759+Q16539+P53778)", "test": "Inhibition of human P38 expressed in yeast using T669 as substrate preincubated for 30 mins followed by [gamma-32P]Mg/ATP addition measured after 25 mins by beta scintillation counting method"}, "Collagenase 3": {"target": "Collagenase 3 (Homo sapiens, UniProt P45452)", "test": "Inhibition of human recombinant MMP13 (85 to 255 residues) expressed in Escherichia coli using 5-FAM/QXLTM as substrate by fluorometric assay"}, "Protease": {"target": "Protease (Human immunodeficiency virus 1, UniProt Q9YQ12)", "sequence (Q9YQ12 whole entry)": "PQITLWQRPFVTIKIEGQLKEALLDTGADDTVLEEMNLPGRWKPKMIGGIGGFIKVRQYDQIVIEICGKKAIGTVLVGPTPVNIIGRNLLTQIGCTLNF", "test": "Inhibition of HIV1 protease"}, "[2]": {"target": "cGMP-inhibited 3',5'-cyclic phosphodiesterase 3B (Homo sapiens, UniProt Q13370)", "sequence (Q13370 whole entry)": "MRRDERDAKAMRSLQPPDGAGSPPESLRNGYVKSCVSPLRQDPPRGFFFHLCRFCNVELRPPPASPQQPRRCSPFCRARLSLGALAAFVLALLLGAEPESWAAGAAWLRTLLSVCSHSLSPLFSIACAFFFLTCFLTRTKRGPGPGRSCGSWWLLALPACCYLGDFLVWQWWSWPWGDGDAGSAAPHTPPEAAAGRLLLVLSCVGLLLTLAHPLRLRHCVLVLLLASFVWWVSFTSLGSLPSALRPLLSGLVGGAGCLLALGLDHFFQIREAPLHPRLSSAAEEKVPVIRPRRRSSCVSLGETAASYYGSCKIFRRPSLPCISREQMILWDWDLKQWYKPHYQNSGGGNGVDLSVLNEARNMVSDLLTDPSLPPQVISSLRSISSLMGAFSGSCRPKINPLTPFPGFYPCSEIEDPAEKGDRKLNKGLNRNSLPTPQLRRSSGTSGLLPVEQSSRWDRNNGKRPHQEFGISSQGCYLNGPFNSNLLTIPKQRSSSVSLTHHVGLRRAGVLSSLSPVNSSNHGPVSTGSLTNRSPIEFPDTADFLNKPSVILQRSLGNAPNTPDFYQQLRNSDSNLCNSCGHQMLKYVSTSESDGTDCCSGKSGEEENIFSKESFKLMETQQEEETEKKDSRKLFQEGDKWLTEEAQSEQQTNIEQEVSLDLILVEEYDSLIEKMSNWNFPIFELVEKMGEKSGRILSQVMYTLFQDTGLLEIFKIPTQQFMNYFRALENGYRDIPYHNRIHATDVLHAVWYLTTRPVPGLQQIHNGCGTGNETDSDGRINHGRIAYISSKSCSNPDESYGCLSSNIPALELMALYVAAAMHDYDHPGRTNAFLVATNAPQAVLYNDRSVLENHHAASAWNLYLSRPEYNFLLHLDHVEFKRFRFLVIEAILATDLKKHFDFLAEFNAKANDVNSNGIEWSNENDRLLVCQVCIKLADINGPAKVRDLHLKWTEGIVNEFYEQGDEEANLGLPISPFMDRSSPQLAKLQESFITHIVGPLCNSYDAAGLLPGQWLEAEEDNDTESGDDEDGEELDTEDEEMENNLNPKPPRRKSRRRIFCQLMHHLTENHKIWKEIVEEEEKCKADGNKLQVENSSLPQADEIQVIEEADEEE", "test": "Inhibition of human recombinant PDE3B expressed in insect Sf9 cells assessed as residual cAMP level after 30 mins by HTRF assay"}, "[3]": {"target": "Serine/threonine-protein kinase PLK1 (Homo sapiens, UniProt P53350)", "sequence (P53350 whole entry)": "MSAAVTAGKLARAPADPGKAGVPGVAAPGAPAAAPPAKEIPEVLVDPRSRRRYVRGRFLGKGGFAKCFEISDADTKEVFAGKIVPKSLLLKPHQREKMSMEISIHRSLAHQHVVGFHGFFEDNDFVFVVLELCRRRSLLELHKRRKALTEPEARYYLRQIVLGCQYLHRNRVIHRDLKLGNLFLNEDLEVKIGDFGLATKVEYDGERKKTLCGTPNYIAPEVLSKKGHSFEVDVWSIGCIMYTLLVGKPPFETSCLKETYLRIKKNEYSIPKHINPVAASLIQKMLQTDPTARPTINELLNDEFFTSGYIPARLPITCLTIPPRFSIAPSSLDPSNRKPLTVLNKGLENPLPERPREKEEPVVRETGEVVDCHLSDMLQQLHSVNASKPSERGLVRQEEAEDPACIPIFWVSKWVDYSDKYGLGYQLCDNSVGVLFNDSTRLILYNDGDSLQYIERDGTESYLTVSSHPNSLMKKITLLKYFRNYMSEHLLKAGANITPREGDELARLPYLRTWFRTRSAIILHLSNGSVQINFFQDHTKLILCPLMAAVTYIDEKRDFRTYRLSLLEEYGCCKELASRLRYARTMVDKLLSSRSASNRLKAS", "test": "Inhibition of inactivated PLK1 in human HeLa cells using casein as substrate by immunoprecipitation assay", "format": "cell-based"}, "Estrogen receptor": {"target": "T1, Estrogen receptor (Homo sapiens, UniProt P03372)", "T1 sequence (P03372 whole entry)": "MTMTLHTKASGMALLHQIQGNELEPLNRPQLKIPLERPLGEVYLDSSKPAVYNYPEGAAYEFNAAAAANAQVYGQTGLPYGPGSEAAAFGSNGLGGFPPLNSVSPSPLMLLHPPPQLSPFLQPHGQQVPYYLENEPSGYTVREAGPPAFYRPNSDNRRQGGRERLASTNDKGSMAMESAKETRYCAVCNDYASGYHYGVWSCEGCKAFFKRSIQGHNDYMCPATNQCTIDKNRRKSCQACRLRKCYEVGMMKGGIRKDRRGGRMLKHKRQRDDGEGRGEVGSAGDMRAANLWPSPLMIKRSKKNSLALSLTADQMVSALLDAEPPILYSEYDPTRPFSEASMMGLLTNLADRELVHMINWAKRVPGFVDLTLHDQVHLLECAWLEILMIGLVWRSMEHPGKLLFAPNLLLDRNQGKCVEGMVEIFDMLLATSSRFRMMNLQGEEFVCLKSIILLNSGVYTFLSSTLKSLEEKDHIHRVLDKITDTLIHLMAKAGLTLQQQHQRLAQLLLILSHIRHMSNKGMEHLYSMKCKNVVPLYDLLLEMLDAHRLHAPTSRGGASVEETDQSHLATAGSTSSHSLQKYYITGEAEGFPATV", "test": "Displacement of [3H]-17beta-estradiol from human recombinant ERalpha expressed in rabbit reticulocytes", "format": "cell-based"}, "Estrogen receptor beta": {"target": "Estrogen receptor beta (Homo sapiens, UniProt Q92731)", "sequence (Q92731 whole entry)": "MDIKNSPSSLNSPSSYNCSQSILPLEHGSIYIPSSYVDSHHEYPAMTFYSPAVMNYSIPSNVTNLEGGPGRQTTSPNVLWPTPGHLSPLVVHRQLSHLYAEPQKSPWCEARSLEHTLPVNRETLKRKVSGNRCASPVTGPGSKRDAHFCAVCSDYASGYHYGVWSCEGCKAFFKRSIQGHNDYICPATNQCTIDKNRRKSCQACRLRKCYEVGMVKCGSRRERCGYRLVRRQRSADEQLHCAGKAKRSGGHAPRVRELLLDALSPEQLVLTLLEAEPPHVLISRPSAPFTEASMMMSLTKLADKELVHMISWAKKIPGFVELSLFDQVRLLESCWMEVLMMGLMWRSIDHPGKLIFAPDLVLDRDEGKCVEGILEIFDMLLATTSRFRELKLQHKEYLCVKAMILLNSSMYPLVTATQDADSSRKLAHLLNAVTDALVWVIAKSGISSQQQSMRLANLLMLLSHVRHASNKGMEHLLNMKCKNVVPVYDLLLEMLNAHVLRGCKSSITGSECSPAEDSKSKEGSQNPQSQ", "test": "Displacement of [3H]-17beta-estradiol from human recombinant ERbeta expressed in rabbit reticulocytes", "format": "cell-based"}},
  "data": [
    {"smiles": "O=C(Nc1ccccn1)Nc1cccc2c1-c1ccccc1C2=O", "values": [
      {"measurement": "IC50", "setting": "[1]", "value": 100, "unit": "nM"}
    ]},
    {"smiles": "O=C(COc1ccccc1)N[C@@H](Cc1ccccc1)C(=O)O[C@H]1CCOC1", "values": [
      {"measurement": "EC50", "setting": "Procathepsin L", "value": 6000, "unit": "nM"}
    ]},
    {"smiles": "Cc1ccc(-c2ncn(CC3CC3)c2-c2ccncc2)cc1", "values": [
      {"measurement": "IC50", "setting": "MAP kinase p38", "value": 160, "unit": "nM"}
    ]},
    {"smiles": "O=C(O)CCCOc1cccc(CNC(=O)C#Cc2cn(Cc3ccc(C(=O)O)cc3)c(=O)[nH]c2=O)c1", "values": [
      {"measurement": "IC50", "setting": "Collagenase 3", "value": 6, "unit": "nM"}
    ]},
    {"smiles": "CC(C)(C)NC(=O)[C@@H]1C[C@@H]2CCCC[C@@H]2CN1C[C@@H](O)[C@H](Cc1ccccc1)NC(=O)OC1CCCC1", "values": [
      {"measurement": "IC50", "setting": "Protease", "value": 160, "unit": "nM"}
    ]},
    {"smiles": "O=C1CCC(c2ccc(NC(=O)Cc3cccnc3)cc2)=NN1", "values": [
      {"measurement": "EC50", "setting": "[2]", "value": 6000, "unit": "nM"}
    ]},
    {"smiles": "FC(F)(F)c1ccc(OC(CCNCc2ccccn2)c2ccccc2)cc1", "note": "(centres undefined)", "values": [
      {"measurement": "IC50", "setting": "[3]", "value": 50, "unit": "nM"}
    ]},
    {"smiles": "CCc1ccc2c(c1)C(c1ccc(OCCN3CCOCC3)cc1)Cc1cc(O)cc(C)c1-2", "note": "(centres undefined)", "values": [
      {"measurement": "IC50", "setting": "Estrogen receptor", "value": 9, "unit": "nM"},
      {"measurement": "IC50", "setting": "Estrogen receptor beta", "value": 190, "unit": "nM"}
    ]}
  ]
}
